This is an account of results in ChEMBL document CHEMBL1157449, “Development of a novel fluorescent probe for fluorescence correlation spectroscopic detection of kinase inhibitors” (Bioorg Med Chem Lett, 2008).

Experiment [1] concerns the target T1, Mitogen-activated protein kinase kinase kinase 5 (Homo sapiens, UniProt Q99683).
T1 sequence (Q99683 whole entry): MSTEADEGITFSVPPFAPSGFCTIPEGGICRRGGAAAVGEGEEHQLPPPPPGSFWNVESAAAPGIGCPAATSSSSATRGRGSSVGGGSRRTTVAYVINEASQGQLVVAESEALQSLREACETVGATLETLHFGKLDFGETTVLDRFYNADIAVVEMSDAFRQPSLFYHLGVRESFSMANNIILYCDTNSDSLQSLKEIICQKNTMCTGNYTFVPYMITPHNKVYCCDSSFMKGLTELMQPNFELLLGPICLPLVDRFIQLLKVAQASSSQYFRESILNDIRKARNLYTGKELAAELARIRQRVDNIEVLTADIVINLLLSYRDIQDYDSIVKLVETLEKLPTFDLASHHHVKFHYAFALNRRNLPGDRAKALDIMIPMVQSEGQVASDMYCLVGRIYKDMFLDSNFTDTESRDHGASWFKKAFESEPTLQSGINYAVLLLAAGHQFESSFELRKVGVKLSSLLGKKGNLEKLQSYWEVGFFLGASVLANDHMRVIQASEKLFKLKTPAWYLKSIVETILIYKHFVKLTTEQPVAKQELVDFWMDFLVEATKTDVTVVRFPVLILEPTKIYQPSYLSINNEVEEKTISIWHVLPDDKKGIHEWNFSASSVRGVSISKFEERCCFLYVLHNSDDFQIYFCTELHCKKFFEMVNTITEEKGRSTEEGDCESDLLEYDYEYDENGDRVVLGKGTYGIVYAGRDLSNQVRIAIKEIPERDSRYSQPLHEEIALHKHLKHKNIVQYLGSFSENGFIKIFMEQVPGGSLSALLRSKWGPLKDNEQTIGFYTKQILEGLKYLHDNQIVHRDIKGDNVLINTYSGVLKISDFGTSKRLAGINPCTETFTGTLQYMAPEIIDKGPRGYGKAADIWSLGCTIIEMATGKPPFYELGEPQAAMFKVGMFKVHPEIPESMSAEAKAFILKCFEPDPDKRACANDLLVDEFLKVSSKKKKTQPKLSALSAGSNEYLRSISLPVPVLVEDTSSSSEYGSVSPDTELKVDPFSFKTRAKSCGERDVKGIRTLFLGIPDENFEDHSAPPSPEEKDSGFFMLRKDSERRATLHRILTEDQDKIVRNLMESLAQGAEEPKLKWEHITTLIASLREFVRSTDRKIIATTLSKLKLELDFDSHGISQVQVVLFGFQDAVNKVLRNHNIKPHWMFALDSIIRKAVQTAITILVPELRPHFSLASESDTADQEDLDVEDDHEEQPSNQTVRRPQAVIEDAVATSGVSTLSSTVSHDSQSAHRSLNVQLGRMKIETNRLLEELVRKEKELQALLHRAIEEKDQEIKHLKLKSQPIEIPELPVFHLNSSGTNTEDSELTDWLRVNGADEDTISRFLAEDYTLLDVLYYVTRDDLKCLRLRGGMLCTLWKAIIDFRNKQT
Briefly: Inhibition of ASK1 by luciferase assay.

Experiment [2] addresses T1, Mitogen-activated protein kinase kinase kinase 5. Briefly: Inhibition of ASK1 by fluorescence correlation spectroscopy.
Experiment [3] shares this target. Kind of experiment: Binding affinity to ASK1.

Each structure is given as a SMILES string.

What is called IC50 is the midpoint of a concentration-inhibition curve. A lower IC50 goes with higher potency. Broadly, the Kd is the equilibrium constant for the complex coming apart. Low values mean higher affinity, high ones lower affinity.

Take `NC1=NC(=O)/C(=C2\CCNC(=O)c3[nH]c(Br)cc32)N1` [HYMENIALDISINE]: the IC50 in experiment [1] amounted to 0.15 µM; in experiment [2] it was 7 µM.
Regarding `Cn1cc(/C=C2\C(=O)Nc3ccccc32)c2ccccc21`, the half-maximal inhibitory concentration (IC50) in experiment [1] is 82.7 µM; in experiment [2], greater than 100 µM.
`CO[C@@H]1[C@H](N(C)C(=O)COCCOCCNC(=O)c2ccc(-c3c4ccc(=[N+](C)C)cc-4oc4cc(N(C)C)ccc34)c(C(=O)O)c2)C[C@H]2O[C@]1(C)n1c3ccccc3c3c4c(c5c6ccccc6n2c5c31)C(=O)NC4` had a Kd in experiment [3] of 8 µM.
